Assay results as given in PubChem BioAssay AID2060613 (Molecular Pharmacology Branch, DTP, NCI, 2025).
“And” between values parts separate entries of the source, which are not always exact repeats. Identical values can stand only once.

Tested on: 233499-124-R-J3-PDC complex spheroid viability
Experiment: Anticancer human tumor 233499-124-R-J3-PDC patient-derived colon adenocarcinoma cell line growth inhibition [CLK]
Details: for viability, T/C: stronger effect = lower value
In short: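 Multi-cell-type spheroids combined patient-derived tumor cells with HUVEC endothelial cells and human mesenchymal stem cells. Paired agents were dosed in half-log steps down from about clinical Cmax, or from 10 microM where Cmax was unknown.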

[1] = curve of first compound, second compound 0.0316 µM
[2] = curve of first compound, second compound 0.1 µM
[3] = curve of first compound, second compound 0.316 µM
[4] = curve of first compound, second compound 1 µM
[5] = curve of first compound, second compound 3.16 µM
[6] = curve of first compound, second compound 10 µM
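Further: spheroids exposed to the drug combinations for seven days.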
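Wherever viability, T/C is given: percent viability relative to DMSO vehicle control wells taken as 100%.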

For `NC(=O)C(=Cn1cnc(-c2cc(C(F)(F)F)cc(C(F)(F)F)c2)n1)c1cncnc1` + CN1CCN(c2cc(C(=O)Nc3cc4cc(-c5cnn(C)c5)ccc4cn3)ccn2)CC1, the IC50 [1] was 0.181 µM, the IC50 [2] was 0.0768 µM and the IC50 [3] was under 0.00949 µM. It also gave an IC50 [4] of under 0.00949 µM, an IC50 [5] of under 0.00949 µM and an IC50 [6] of under 0.00949 µM. For the same compound, the viability, T/C (second compound 0.0316 µM, first compound 0.00949 µM) was 72.5%, the viability, T/C (second compound 0.0316 µM, first compound 0.03 µM) was 85.6% and the viability, T/C (second compound 0.0316 µM, first compound 0.0949 µM) was 67.3%. It also gave a viability, T/C (second compound 0.0316 µM, first compound 0.3 µM) of 35.2%, a viability, T/C (second compound 0.0316 µM, first compound 0.949 µM) of 10.4% and a viability, T/C (second compound 0.0316 µM, first compound 3 µM) of 2.15%. The viability, T/C (second compound 0.1 µM, first compound 0.00949 µM) was 102%, the viability, T/C (second compound 0.1 µM, first compound 0.03 µM) was 96.2% and the viability, T/C (second compound 0.1 µM, first compound 0.0949 µM) was 39.2%. For the same compound, the viability, T/C (second compound 0.1 µM, first compound 0.3 µM) was 7.63%, the viability, T/C (second compound 0.1 µM, first compound 0.949 µM) was 0.53% and the viability, T/C (second compound 0.1 µM, first compound 3 µM) was 0.43%. For the same compound, the viability, T/C (second compound 0.316 µM, first compound 0.00949 µM) was 22.2%, the viability, T/C (second compound 0.316 µM, first compound 0.03 µM) was 13.2% and the viability, T/C (second compound 0.316 µM, first compound 0.0949 µM) was 0.29%. For the same compound, the viability, T/C (second compound 0.316 µM, first compound 0.3 µM) was 0.23%, the viability, T/C (second compound 0.316 µM, first compound 0.949 µM) was 0.39% and the viability, T/C (second compound 0.316 µM, first compound 3 µM) was 1.07%. For the same compound, the viability, T/C (second compound 1 µM, first compound 0.00949 µM) was 0.3%, the viability, T/C (second compound 1 µM, first compound 0.03 µM) was 0.31% and the viability, T/C (second compound 1 µM, first compound 0.0949 µM) was 0.31%. It also gave a viability, T/C (second compound 1 µM, first compound 0.3 µM) of 0.25%, a viability, T/C (second compound 1 µM, first compound 0.949 µM) of 0.48% and a viability, T/C (second compound 1 µM, first compound 3 µM) of 0.23%. It also gave a viability, T/C (second compound 3.16 µM, first compound 0.00949 µM) of 0.3%, a viability, T/C (second compound 3.16 µM, first compound 0.03 µM) of 0.26% and a viability, T/C (second compound 3.16 µM, first compound 0.0949 µM) of 0.25%. It also gave a viability, T/C (second compound 3.16 µM, first compound 0.3 µM) of 0.25%, a viability, T/C (second compound 3.16 µM, first compound 0.949 µM) of 0.21% and a viability, T/C (second compound 3.16 µM, first compound 3 µM) of 0.19%. The viability, T/C (second compound 10 µM, first compound 0.00949 µM) was 0.13%, the viability, T/C (second compound 10 µM, first compound 0.03 µM) was 0.12% and the viability, T/C (second compound 10 µM, first compound 0.0949 µM) was 0.19%. For the same compound, the viability, T/C (second compound 10 µM, first compound 0.3 µM) was 0.17%, the viability, T/C (second compound 10 µM, first compound 0.949 µM) was 0.19% and the viability, T/C (second compound 10 µM, first compound 3 µM) was 0.21%.

With `CCCS(=O)(=O)Nc1ccc(F)c(C(=O)c2c[nH]c3ncc(-c4ccc(Cl)cc4)cc23)c1F` the viability, T/C (compound 0.0316 µM) was 91.2% and 100%, the viability, T/C (compound 0.1 µM) was 97.3% and 103% and the viability, T/C (compound 0.316 µM) was 111% and 99.1%. For the same compound, the viability, T/C (compound 1 µM) was 104% and 110%, the viability, T/C (compound 3.16 µM) was 104% and 105% and the viability, T/C (compound 10 µM) was 98% and 65.2%. For the same compound, the IC50 (curve of compound) was over 10 µM.

`COc1c(OCCCN2CCOCC2)ccc2c3n(c(=NC(=O)c4cnc(N)nc4)nc12)CCN3` + CNC(=O)c1ccc(Nc2nc(OC3CCCC3)c3c(-c4ccc5nc(C)oc5c4)c[nH]c3n2)c(OC)c1 showed an IC50 [1] of 0.172 µM, an IC50 [2] of 0.111 µM and an IC50 [3] of 0.0885 µM. It also gave an IC50 [4] of 0.0259 µM, an IC50 [5] of 0.0417 µM and an IC50 [6] of 0.0272 µM. It also gave a viability, T/C (second compound 0.0316 µM, first compound 0.00316 µM) of 90%, a viability, T/C (second compound 0.0316 µM, first compound 0.01 µM) of 91% and a viability, T/C (second compound 0.0316 µM, first compound 0.0316 µM) of 81.6%. It also gave a viability, T/C (second compound 0.0316 µM, first compound 0.1 µM) of 65.3%, a viability, T/C (second compound 0.0316 µM, first compound 0.316 µM) of 33.2% and a viability, T/C (second compound 0.0316 µM, first compound 1 µM) of 5.74%. For the same compound, the viability, T/C (second compound 0.1 µM, first compound 0.00316 µM) was 70.5%, the viability, T/C (second compound 0.1 µM, first compound 0.01 µM) was 85.4% and the viability, T/C (second compound 0.1 µM, first compound 0.0316 µM) was 73.2%. The viability, T/C (second compound 0.1 µM, first compound 0.1 µM) was 53.4%, the viability, T/C (second compound 0.1 µM, first compound 0.316 µM) was 16.1% and the viability, T/C (second compound 0.1 µM, first compound 1 µM) was 3.37%. It also gave a viability, T/C (second compound 0.316 µM, first compound 0.00316 µM) of 75.3%, a viability, T/C (second compound 0.316 µM, first compound 0.01 µM) of 81.8% and a viability, T/C (second compound 0.316 µM, first compound 0.0316 µM) of 68.8%. The viability, T/C (second compound 0.316 µM, first compound 0.1 µM) was 45.7%, the viability, T/C (second compound 0.316 µM, first compound 0.316 µM) was 22.6% and the viability, T/C (second compound 0.316 µM, first compound 1 µM) was 3.62%. For the same compound, the viability, T/C (second compound 1 µM, first compound 0.00316 µM) was 73.5%, the viability, T/C (second compound 1 µM, first compound 0.01 µM) was 59.4% and the viability, T/C (second compound 1 µM, first compound 0.0316 µM) was 49%. It also gave a viability, T/C (second compound 1 µM, first compound 0.1 µM) of 31.6%, a viability, T/C (second compound 1 µM, first compound 0.316 µM) of 23% and a viability, T/C (second compound 1 µM, first compound 1 µM) of 3.52%. For the same compound, the viability, T/C (second compound 3.16 µM, first compound 0.00316 µM) was 62.9%, the viability, T/C (second compound 3.16 µM, first compound 0.01 µM) was 68.1% and the viability, T/C (second compound 3.16 µM, first compound 0.0316 µM) was 50%. It also gave a viability, T/C (second compound 3.16 µM, first compound 0.1 µM) of 38.8%, a viability, T/C (second compound 3.16 µM, first compound 0.316 µM) of 15.3% and a viability, T/C (second compound 3.16 µM, first compound 1 µM) of 2.16%. For the same compound, the viability, T/C (second compound 10 µM, first compound 0.00316 µM) was 75.1%, the viability, T/C (second compound 10 µM, first compound 0.01 µM) was 65.9% and the viability, T/C (second compound 10 µM, first compound 0.0316 µM) was 45.5%. For the same compound, the viability, T/C (second compound 10 µM, first compound 0.1 µM) was 31%, the viability, T/C (second compound 10 µM, first compound 0.316 µM) was 10.5% and the viability, T/C (second compound 10 µM, first compound 1 µM) was 2.07%.

With `COC1C=CCC(C)C(C)S(=O)(=O)NC(=O)c2ccc3c(c2)N(CC2CCC21)CC1(CCCc2cc(Cl)ccc21)CO3` (stereo not drawn) the viability, T/C (compound 0.0316 µM) was 101% and 96.4%, the viability, T/C (compound 0.1 µM) was 86.9% and 97.1% and the viability, T/C (compound 0.316 µM) was 74% and 90.9%. The viability, T/C (compound 1 µM) was 80.4% and 83.1%, the viability, T/C (compound 3.16 µM) was 58.9% and 76% and the viability, T/C (compound 10 µM) was 5.33% and 8.83%. The IC50 (curve of compound) was 3.63 µM and 4.8 µM.
